Source: patent US9228175B2, “Genes encoding a novel type of lysophophatidylcholine acyltransferases and their use to increase triacylglycerol production and/or modify fatty acid composition” (National Research Counsel of Canada, priority 2006, dated 2016)

What was measured:
Assay type in all cases: biochemical
AtLPCAT2 = target: T1, AtLPCAT2 (Arabidopsis thaliana, UniProt Q9CAN8); assay: Zn^2+ sensitivity of AtLPCAT2, in vitro LPCAT assay; details: increasing ZnCl2; 25 μM palmitoyl-LPC, 25 μM stearyl-CoA, 20 μg microsomal protein, pH 7.4
T1 construct: made in house; host or cells: S. cerevisiae YOR175c deletion strain BY02431 (lca1Δ), pYES2.1 TOPO, galactose induction; microsomal protein
T1 sequence (Q9CAN8 1-465): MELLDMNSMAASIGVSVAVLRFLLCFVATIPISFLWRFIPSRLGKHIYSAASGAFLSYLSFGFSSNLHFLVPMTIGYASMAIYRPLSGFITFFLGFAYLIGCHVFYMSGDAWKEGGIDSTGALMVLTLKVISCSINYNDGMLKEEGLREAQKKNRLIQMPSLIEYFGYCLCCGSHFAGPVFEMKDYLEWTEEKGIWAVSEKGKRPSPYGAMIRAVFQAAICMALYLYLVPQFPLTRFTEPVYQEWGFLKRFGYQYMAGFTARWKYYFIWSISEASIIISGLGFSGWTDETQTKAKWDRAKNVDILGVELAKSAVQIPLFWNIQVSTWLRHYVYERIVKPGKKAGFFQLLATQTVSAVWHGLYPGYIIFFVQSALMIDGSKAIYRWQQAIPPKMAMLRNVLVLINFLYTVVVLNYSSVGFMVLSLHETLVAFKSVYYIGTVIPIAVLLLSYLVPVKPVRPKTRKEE
Description: (§1) FIG. 19 is a graph depicting the inhibitory effect of Zn^2+ on AtLPCATs activity. The lca1Δ over-expressing AtLPCATs was used to asses Zn^2+ effect. The reactions contained 25 μM palmitoyl-LPC (1.35 nCi/nmol), 20 μg microsomal proteins, 0.1 M HEPES (pH 7.4), 25 μM stearyl-CoA and indicated concentration of ZnCl2.
(§2) AtLPCAT substrate specificity was determined by counting incorporation of 14C-labeled lysophosphatidylcholine or 14C-labeled palmitoyl-CoA into phosphatidylcholine. All assays were performed at least twice. […] reaction mixture contained […] microsomal protein, […] acyl-CoA and […], pH7.4. 14C-lysophosphatidylcholine (1.4 nCi/nmol) or 14C-palmityl-CoA (5.5 nCi/nmol) was used to assess fatty-CoA or lyso-lipid substrate specificity. Reaction was allowed for ten minutes at 30° C. All radiolabel chemicals for these assays were purchased from ARC, Inc.

LCA1 = target: T2, LCA1 (Saccharomyces cerevisiae, UniProt Q08548); assay: Zn^2+ / Mg^2+ effect on LPCAT activity of LCA1 (in vitro assay, microsomes of lca1Δ over-expressing LCA1); details: for LPCAT activity (% control): 5.6 μM palmitoyl-LPC, 11.25 μM stearyl-CoA, 1.5 μg microsomal protein, pH 7.4, two minutes, mean±S.D.
T2 construct: Saccharomyces cerevisiae YOR175c ORF was PCR-amplified; made in house; host or cells: S. cerevisiae YOR175c deletion strain Y02431 (lca1Δ), pYES2.1, galactose induction; microsomal fraction
T2 sequence (Q08548 1-619): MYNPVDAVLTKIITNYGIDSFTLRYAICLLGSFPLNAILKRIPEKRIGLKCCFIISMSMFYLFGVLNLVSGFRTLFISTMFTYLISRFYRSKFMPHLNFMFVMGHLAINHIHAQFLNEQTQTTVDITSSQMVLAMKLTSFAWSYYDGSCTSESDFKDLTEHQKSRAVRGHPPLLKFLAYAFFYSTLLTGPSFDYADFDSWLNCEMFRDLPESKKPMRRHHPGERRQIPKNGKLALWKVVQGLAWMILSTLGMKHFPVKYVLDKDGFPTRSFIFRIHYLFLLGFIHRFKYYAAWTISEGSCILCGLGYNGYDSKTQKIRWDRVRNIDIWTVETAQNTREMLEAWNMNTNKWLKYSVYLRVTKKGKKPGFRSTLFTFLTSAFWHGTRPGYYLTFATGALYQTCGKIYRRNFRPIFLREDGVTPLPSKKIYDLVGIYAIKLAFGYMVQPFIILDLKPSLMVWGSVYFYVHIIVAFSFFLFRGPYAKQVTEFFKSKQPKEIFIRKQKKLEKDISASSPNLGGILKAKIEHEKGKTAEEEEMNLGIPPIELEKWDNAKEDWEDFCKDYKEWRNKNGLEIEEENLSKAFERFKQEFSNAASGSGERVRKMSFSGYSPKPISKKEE
Description: Microsomal preparation: Yeast strains were first grown in 15 ml of SC-Leu-His-Ura medium containing 2% glucose. Protein expression induction was carried out as described in Invitrogen manufacturer manual for yeast expression vector pYES2.1. After 24 hours of growth in SC+2% galactose+1% raffinose induction conditions, the cells were washed, first with distilled water and then with wall-breaking buffer (50 mM Tris-HCl, 1 mM EDTA, 0.6 M sorbitol, pH 7.4, 1 mM DTT). After centrifugation at 4,000 rpm (Eppendorf Centrifuge 5145C), the cells were resuspended in 1 ml wall-breaking buffer with 10 μl yeast protease cocktail (Sigma), and shaken vigorously in the presence of acid-washed glass beads (diameter 0.5 mm). The resultant homogenate was centrifuged at 12,000 rpm for ten minutes at 4° C. The decanted supernatant was further centrifuged at 100,000×g for 90-120 minutes at 4° C. The supernatant was discarded, and the pellet was suspended in homogenization buffer containing 20% glycerol and frozen at −80° C. until use. Protein concentration was measured using Bio-Rad Protein Assay Kit for final enzyme activity calculation.
In Vitro Assay of LPCAT activity: LPCAT substrate specificity was determined by measuring incorporation of [^14C] lysophosphatidylcholine or [^14C] palmitoyl-CoA into phosphatidylcholine. All assays were performed at least twice. For lysophospholipid substrate specificity assessment, 400 μl HEPES buffer contained 3 μg microsomal protein, 50 μM of lysophospholipid substrates and 112.5 μM [^14C] palmitoyl-CoA (5.5 nCi/nmol). For acyl-CoA substrate selectivity analysis, 400 μl HEPES reaction buffer (pH7.4, 0.1 M) contained 3 μg microsomal protein, 50 μM acyl-CoA and 112.5 μM [^14C] […] (1.35 nCi/nmol). Reaction was allowed for 2 minutes at 30° C. with 100 rpm shaking. The reaction products were extracted with chloroform/methanol (2/1, v/v) and separated with Merck silica G60 TLC plates. Spots corresponding to different phospholipid species products were scraped off and ^14C incorporation were scintillation counted. Different concentrations of ZnCl2 were added in to reactions for Zn^2+ inhibitory effect assay.
Results are expressed as means±S.D. The lca1Δ over-expressing LCA1 was used to assess Zn^2+ effect. The reactions contained 5.6 μM palmitoyl-LPC (1.35 nCi/nmol), 1.5 μg microsomal proteins, 0.1 M HEPES (pH 7.4), 11.25 μM stearyl-CoA and indicated concentration of ZnCl2. The reaction was stopped after two minutes by adding 2 ml of chloroform/methanol solution (2:1).

AtLPCAT1 = target: T3, AtLPCAT1 (Arabidopsis thaliana, UniProt F4IDU4); assay: Zn^2+ sensitivity of AtLPCAT1, in vitro LPCAT assay; details: increasing ZnCl2; 25 μM palmitoyl-LPC, 25 μM stearyl-CoA, 20 μg microsomal protein, pH 7.4
T3 construct: made in house; host or cells: S. cerevisiae YOR175c deletion strain BY02431 (lca1Δ), pYES2.1 TOPO, galactose induction; microsomal protein
T3 sequence (F4IDU4 1-462): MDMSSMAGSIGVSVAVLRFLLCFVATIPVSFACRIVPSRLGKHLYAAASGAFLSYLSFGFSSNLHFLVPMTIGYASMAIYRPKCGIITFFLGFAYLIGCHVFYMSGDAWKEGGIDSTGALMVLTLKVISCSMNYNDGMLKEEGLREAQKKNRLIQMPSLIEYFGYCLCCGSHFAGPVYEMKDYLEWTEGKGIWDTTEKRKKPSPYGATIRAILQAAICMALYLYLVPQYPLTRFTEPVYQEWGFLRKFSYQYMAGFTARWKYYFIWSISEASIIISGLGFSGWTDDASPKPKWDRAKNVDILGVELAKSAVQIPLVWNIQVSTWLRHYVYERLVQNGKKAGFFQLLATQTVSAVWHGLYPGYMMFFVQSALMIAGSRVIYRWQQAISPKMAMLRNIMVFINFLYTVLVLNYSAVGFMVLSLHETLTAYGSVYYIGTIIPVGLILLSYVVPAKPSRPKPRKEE
Description: as §1, §2

Compound: [Cl-].[Cl-].[Zn+2] [ZnCl2]
- AtLPCAT2 activity with Zn^2+ added (AtLPCAT2): decreased with increasing concentration
- Concentration at which the maximum increase of LPCAT activity was observed (LCA1): 25 µM
- LPCAT activity (% control) (LCA1; 5 μM ZnCl2): 98 ± 5.9 % control
- LPCAT activity (% control) (LCA1; 10 μM ZnCl2): 136.8 ± 3.9 % control
- LPCAT activity (% control) (LCA1; 25 μM ZnCl2): 149.7 ± 12.0 % control
- LPCAT activity (% control) (LCA1; 0.1 mM ZnCl2): 35 ± 22.4 % control
- LPCAT activity (% control) (LCA1; 20 mM ZnCl2): 6 ± 2.0 % control
- Effect on LPCAT activity of LCA1 (LCA1; lower (10-25 μM) concentration): enhanced LPCAT activity
- Effect on LPCAT activity of LCA1 (LCA1; range between 0.1 mM to 20 mM): significant reduction
- AtLPCAT1 activity with Zn^2+ added (AtLPCAT1): decreased with increasing concentration
